In paper PMC9619225, “Novel transketolase inhibitor oroxylin A suppresses the non‐oxidative pentose phosphate pathway and hepatocellular carcinoma tumour growth in mice and patient‐derived organoids” (Clinical and Translational Medicine, 2022):

Legend:
Format in all cases: binding
[1] = molecular target: T1, p53 (Homo sapiens, UniProt P04637); assay: SPR
T1 construct: gene TP53

[2] = molecular target: T2, Transketolase (TKT) (Homo sapiens, UniProt P29401); assay: SPR (Biacore, TKT immobilised on HisCap chip); supported by DARTS, CETSA, TKT-column displacement and enzyme inhibition ([…] at […]); parameters: Purified human TKT protein
T2 sequence (P29401 1-623): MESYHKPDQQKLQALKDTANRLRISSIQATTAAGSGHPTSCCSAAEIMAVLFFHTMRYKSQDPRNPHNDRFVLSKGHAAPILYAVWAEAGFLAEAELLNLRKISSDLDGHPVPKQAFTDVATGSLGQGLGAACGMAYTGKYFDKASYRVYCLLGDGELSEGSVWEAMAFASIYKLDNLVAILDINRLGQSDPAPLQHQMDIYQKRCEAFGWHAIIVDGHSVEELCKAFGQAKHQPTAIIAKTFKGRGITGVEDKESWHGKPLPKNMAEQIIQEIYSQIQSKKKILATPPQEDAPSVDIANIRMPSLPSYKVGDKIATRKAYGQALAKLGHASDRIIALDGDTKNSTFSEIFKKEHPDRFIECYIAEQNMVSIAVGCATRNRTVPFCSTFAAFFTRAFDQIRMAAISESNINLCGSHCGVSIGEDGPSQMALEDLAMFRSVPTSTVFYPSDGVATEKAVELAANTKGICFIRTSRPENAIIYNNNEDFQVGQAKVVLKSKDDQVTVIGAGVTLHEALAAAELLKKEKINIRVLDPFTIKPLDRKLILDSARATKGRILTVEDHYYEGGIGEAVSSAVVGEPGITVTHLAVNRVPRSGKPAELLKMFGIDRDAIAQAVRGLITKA

[3] = molecular target: T2, Transketolase (TKT); assay: competitive displacement chromatography on TKT protein column; parameters: TKT protein immobilised on silica column

T1 sequence (P04637 whole entry): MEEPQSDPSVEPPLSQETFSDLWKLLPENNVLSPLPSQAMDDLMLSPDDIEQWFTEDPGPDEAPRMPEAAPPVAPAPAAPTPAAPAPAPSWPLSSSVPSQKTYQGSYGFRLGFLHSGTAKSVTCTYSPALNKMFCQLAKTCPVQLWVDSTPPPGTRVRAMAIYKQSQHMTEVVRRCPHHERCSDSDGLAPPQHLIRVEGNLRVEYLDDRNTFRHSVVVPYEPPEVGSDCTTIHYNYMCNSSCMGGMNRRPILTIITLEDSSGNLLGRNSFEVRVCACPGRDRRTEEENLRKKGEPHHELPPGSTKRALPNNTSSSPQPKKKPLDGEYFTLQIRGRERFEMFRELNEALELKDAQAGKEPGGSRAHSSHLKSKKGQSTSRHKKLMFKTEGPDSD

COc1c(O)cc2oc(-c3ccccc3)cc(=O)c2c1O [oroxylin A] gave a Kd [1] of 70.7 µM and a Kd [2] of 11.9 ± 8.4 µM.

In the case of Cc1ncc(C[n+]2csc(CCO)c2C)c(O)n1 [oxythiamine], the “competitive displacement chromatography on TKT protein column” value [3] is reported as “retention time of oxythiamine was markedly decreased with the increased concentration of oroxylin A in mobile phase”.
